Test in all cases: LF/GMP assay, viable plate count (pour plate) of broth culture
Assay type in all cases: cell-based
Holding throughout (settings): for Log Difference: sialic acid 1,000 ppm vs 0 ppm, + = more growth

Assay [1] relates to Pseudomonas aeruginosa ATCC #27853. As for the experimental part:
Bacterial strains used in this study were Pseudomonas aeruginosa ATCC #27853, Streptococcus mutans ATCC #33535, Streptococcus pyogenes ATCC #19615, and Actinobacillus haemophilus ATCC #43717 and an oral swab from a healthy adult. Bacteria were grown on blood/BHT media (Brain Heart Infusion Agar with protease peptone, sodium chloride, glucose, di-sodium phosphate, and agar, Oxoid, Hampshire England, Sheep's Blood) in the presence of 5% CO2 at 35° C. Bacteria were harvested by swabbing inoculated growth plates after 24 hours and diluting the colonies in 9 ml of deionized water (DI water) until a suspension of 0.5 McFarland Turbidity Standard was reached using the nephelometer (McFarland Turbidity Meter). The 0.5 McFarland value is approximately equivalent to 1.0×10^8 organisms. One ml of the appropriate bacterial dilution was taken using a sterile pipette and introduced into 8 ml of sterilized BHI broth. (Preparation of BHI broth: 37 g+1,000 ml DI water, Difco Laboratories. By pipette, 9 ml of broth was placed into medium test tubes as means of a control and 8 ml test tubes were prepared for the concentration tests).
This solution was filtered through a 0.45 μm filter. […] Example for calculating 2,500 ppm dilution (1,000 ppm=0.1%): [formula] [formula] [formula] […]
One mL of each bacterial strain, plus one mL of sialic acid solution (1,000 ppm) were inoculated into test tubes filled with 8 mL of BHI broth. Each test tube was vortexed, incubated for 24 hours at 35° C. with 5% CO2, and then pour plated in BHI agar to obtain a plate count.
This technique was used to determine the density of living (viable) cells in inoculated broth cultures. It involves plating a bacterial sample and counting the resulting colonies after incubation. A serial dilution of the original broth was taken prior to plating. The serial dilution is necessary to reduce the density of organisms in order to create countable plates. Only plates containing between 25 and 250 colonies are considered countable. Cell densities are traditionally recorded as CFU (colony forming unit)/ml. By convention, when 1.0 ml is inoculated onto a plate, the dilution factor (DF) is recorded as tenfold greater. Formula: [formula]
The assays required the use of a pour plate technique. The pour plate technique adds a step to the conventional serial dilution. The 1 ml of dilution is added to a warm emulsion of dilute nutrient (BHI) agar to produce an agar overlay in the petri plates. After incubation, the bacterial growth covers the entire plate but individual cellular movement has been restricted by the soft agar overlay. Each colony formed is assumed to have originated from a single CFU. The plates were gently mixed, inverted, and incubated for 18-24 hour at 35° C. […]

In assay [2] the test system is Actinobacillus haemophilus ATCC #43717. As for the experimental part:
(§1) Bacterial strains used in this study were Pseudomonas aeruginosa ATCC #27853, Streptococcus mutans ATCC #33535, Streptococcus pyogenes ATCC #19615, and Actinobacillus haemophilus ATCC #43717 and an oral swab from a healthy adult. Bacteria were grown on blood/BHT media (Brain Heart Infusion Agar with protease peptone, sodium chloride, glucose, di-sodium phosphate, and agar, Oxoid, Hampshire England, Sheep's Blood) in the presence of 5% CO2 at 35° C. […] One ml of the appropriate bacterial dilution was taken using a sterile pipette and introduced into 8 ml of sterilized BHI broth. […] By pipette, 9 ml of broth was placed into medium test tubes as means of a control and 8 ml test tubes were prepared for the concentration tests). […] This solution was filtered through a 0.45 μm filter. […] To study the kinetics of LF/GMP binding, each strain of bacteria was taken separately with a sterile pipette and placed into an 8 ml BHI broth test tube, vortexed, and incubated in the presence of 1 ml of LF or GMP for 18-24 hours at 35° C. with 5% CO2. In the combination procedure, 0.5 ml of both LF and […] were taken as 1 ml inoculations. One mL of each bacterial strain, plus one mL of sialic acid solution (1,000 ppm) were inoculated into test tubes filled with 8 mL of BHI broth. Each test tube was vortexed, incubated for 24 hours at 35° C. with 5% CO2, and then pour plated in BHI agar to obtain a plate count. This technique was used to determine the density of living (viable) cells in inoculated broth cultures. It involves plating a bacterial sample and counting the resulting colonies after incubation. A serial dilution of the original broth was taken prior to plating. The serial dilution is necessary to reduce the density of organisms in order to create countable plates. Only plates containing between 25 and 250 colonies are considered countable. Cell densities are traditionally recorded as CFU (colony forming unit)/ml. […] Formula: [formula] The assays required the use of a pour plate technique. The pour plate technique adds a step to the conventional serial dilution. The 1 ml of dilution is added to a warm emulsion of dilute nutrient (BHI) agar to produce an agar overlay in the petri plates. After incubation, the bacterial growth covers the entire plate but individual cellular movement has been restricted by the soft agar overlay. Each colony formed is assumed to have originated from a single CFU. The plates were gently mixed, inverted, and incubated for 18-24 hour at 35° C. Using a control (one broth tube inoculated with a bacterial strain, but no LF), the effectiveness of LF was examined. Each test tube containing a specified amount of LF (50, 100, 250, 500, 1,000 ppm and 3000 ppm) was diluted and plates were poured. […] A. haemophilus, S. mutans, S. pyrogenes and an oral culture were tested at 35° C. Pseudomonas aeruginosa was tested at both room temperature and 35° C. with 5% CO2. This was done because P. aeruginosa is not strictly an oral pathogen. It is commonly found in the environment in various conditions. It can be found in the environment and oral intake can cause inflammation in the oral cavity. Most normal oral bacteria are only found in the mouth and are not taken in from outside factors. Therefore, P. aeruginosa is a threat in both temperature settings. […] (see Table 2).

Assay [3] has as its system Streptococcus mutans ATCC #33535. As to the method: as §1
Where [4] appears, read: 24 hours at 35° C. with 5% CO2, listed as Sialic acid.
[5] abbreviates: sialic acid 1,000 ppm, 24 hours at 35° C. with 5% CO2.
The mark [6] stands for this setting: sodium bicarbonate pH 4.36, column 1,000 ppm.

Molecules are shown by their SMILES.

Consider `CC(=O)N[C@H]1[C@H]([C@H](O)[C@H](O)CO)OC(O)(C(=O)O)C[C@@H]1O` (stereo partly drawn) [Sialic Acid, N-acetylneuraminic acid, reference compound], for which the “Log Difference” value in assay [1] (24 hours at 35° C. with 5% CO2) is recorded as “^+1 log”; in assay [1] (setting [4]), “increased the amount of bacterial growth by one log”; in assay [2] (24 hours at 35° C. with 5% CO2), 0 log; in assay [2] (setting [4]) it was “did not reduce the bacterial growth”; in assay [3] (24 hours at 35° C. with 5% CO2) it was 0 log; in assay [3] (setting [4]), “did not reduce the bacterial growth”. For the same compound, the plate count in assay [1] (setting [5]) is 1.0 × 10^9; in assay [2] (setting [5]) it was 2.9 × 10^8; in assay [3] (setting [5]) it was 5.4 × 10^7.

Consider `O=C([O-])O.[Na+]` [Sodium Bicarbonate, Sodium bicarbonate], for which the pour plate count in assay [1] (setting [6]) is listed as 6.0 × 10^6; in assay [2] (setting [6]) it was 1.9 × 10^8; in assay [3] (setting [6]), 8.4 × 10^7.
